Measured values as given in paper PMC5920042, “KH176 Safeguards Mitochondrial Diseased Cells from Redox Stress-Induced Cell Death by Interacting with the Thioredoxin System/Peroxiredoxin Enzyme Machinery” (Scientific Reports, 2018).

What was measured:
[1] = tested on: primary human skin fibroblasts; test: Mitochondrial superoxide detection by mitoSOX oxidation; type: cell-based; conditions: 30 min preincubation, no external stimulus
Procedure: The cells were seeded at a density of 3 × 10^3 cells/well into 96-wells black plates. After 24 h, the cells were incubated with different amounts of KH176(m) in M199 without phenol red. This medium was used in all subsequent washes and incubations. After 30 min. incubation the cells were washed and subsequently incubated 1 µM mitoSOX (#M36008, ThermoFisher). […] After 10 min incubation the cells were washed twice and incubated for 30 min. to allow the accumulation of oxidized mitoSOX in the mitochondria. […] Wells with cells but without mitoSOX were used for background correction. Experiments were performed at least three times with 3 wells per experiment.

[2] = tested on: primary human skin fibroblasts; test: CumOOH induced lipid peroxidation (bodipy 581/591 C11); type: cell-based; conditions: 30 µM cumOOH; for IC50: bodipy 581/591 C11
Procedure: The cells were seeded at a density of 3 × 10^3 cells/well into 96-wells black plates. After 24 h, the cells were coincubated with 500 nM bodipy 581/591 C11 (#D3861, Thermo Fisher) and different amounts of KH compound in M199 without phenol red. This medium was used in all subsequent washes and incubations. After 30 min. incubation the cells were washed twice and subsequently incubated with 30 μM cumene hydroperoxide (cumOOH). For background subtractions cells with the dye but without cumOOH were used. After 30 minutes incubation and two washes oxidized bodipy 581/591 C11 was quantified on an automated bioimager (BD Pathway 855), by using a 20x objective and Ex. 488/10 nm, Em. FURA/FITC. Total cellular fluorescence per well was normalized on the number of cellular pixels/well and normalized on the incubation with probe and cumOOH but without compound (vehicle set as 100%). Experiments were performed at least three times with 3 wells per experiment.

[3] = tested on: OXPHOS deficient cell lines; test: Redox Stress Survival assay, extended panel of OXPHOS deficient cell lines; type: cell-based; conditions: Homo sapiens, BSO insult, read-out: EC50 values, range over the panel of cell lines
Procedure: Cells were seeded at a density of 4 × 10^3 cells/well into 96-wells black plates and incubated for 24 h. To induce redox stress, semi-logarithmic dilutions of buthionine sulphoximine (BSO, #B2515, Sigma Aldrich) up to 100 µM were added to the cells in culture medium and incubated for 24 h. Cell viability was assessed by quantification of cellular conversion of Calcein AM into fluorescent Calcein. Briefly, after having discarded the BSO containing medium, cells were washed once with M199 without phenol red and loaded with 2 µM Calcein AM (#65-0853-39, Affimetrix eBioscience) in M199 without phenol red for 25 min. At the end of the incubation period, the excess of the dye was washed with M199 without phenol red and Calcein fluorescence was measured with a scanning microplate reader (BMG FLUOstar Omega; Ex. 480 nm, Em. 520 nm). For compound screening and target identification measurements cells were treated with 200 µM BSO alone or in co-incubation with semi-logarithmic dilutions of the test compound. Additionally, where indicated, increasing doses of Auranofin (AFN, #BML-EI206-0100, Enzo) or Aurothioglucose (ATG, #A0606, Sigma Aldrich) were co-incubated with BSO and the test compound. In all cases, cell viability was assessed 24 h after the treatment.

CCDC101 = biological target: T1, CCDC101 (Homo sapiens, UniProt Q96ES7); test: Surface Plasmon Resonance binding; conditions: SPR
T1 construct: purchased Abcam Ab124547
T1 sequence (Q96ES7 1-293): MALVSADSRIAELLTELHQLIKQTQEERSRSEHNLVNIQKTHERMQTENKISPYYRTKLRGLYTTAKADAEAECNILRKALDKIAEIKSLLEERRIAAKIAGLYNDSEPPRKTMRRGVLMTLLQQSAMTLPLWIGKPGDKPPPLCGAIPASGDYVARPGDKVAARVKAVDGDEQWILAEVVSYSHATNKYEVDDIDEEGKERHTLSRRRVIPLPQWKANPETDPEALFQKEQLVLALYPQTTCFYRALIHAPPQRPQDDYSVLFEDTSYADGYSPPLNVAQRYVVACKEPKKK
Procedure: Prior to protein immobilization all proteins were dialyzed against HBS-E (10 mM Hepes, 150 mM NaCl, 3 mM EDTA) buffer that was previously filtered through a 0.45 µM membrane using dialyze slide according to the manufacturer instruction. Human recombinant proteins peroxiredoxin 2 (Novus Biological NBC1-25855) and CCDC101 (Abcam Ab124547) were immobilized on CM5 (carboxymethylated dextran covalently attached to a gold surface) using the amine coupling method according to manufacturer’s recommendation (Biacore, GE Healthcare). Briefly the CM5 surface was activated with the mixture of EDC/NHS. Recombinant proteins at dilution 1 µg/ml in a corresponding buffer i.e. Peroxiredoxin 2 and CCDC101 in sodium acetate buffer 100 mM (pH 4.9). The control channel was activated with EDC/NHS. […] KH176 andKH176m were solubilized in HBSS at stock solution 1 mM. […] The sensor chip surface was regenerated with 1 mM HCl. The specific binding profiles were obtained after subtracting the response signal from the control empty channel and from blank-buffer injection. The specific binding was calculated using Biaeval 3 software (Biacore, GE Healthcare) with the postulate of 1:1 ligand/analyte interaction.

[4] = Intracellular conversion of KH176 into KH176m (LC-MS/MS); conditions: 24 hours incubation with 3 µM KH176
Procedure: Cells were seeded at a density of 125 × 10^3 cells/well into 6-wells transparent plates (#657160, Greiner Bio-one) and incubated for 24 h. The culture medium was then replaced with fresh medium containing 3 µM KH176 and the cells were incubated for an additional 24 h. At the end of the treatment time, cells were washed twice with ice-cold PBS (#200120169, Thermo Fischer Scientific) before deprotenization with perchloric acid. The samples were then analyzed with standard LC-MS/MS system (Accela HPLC system, Thermo Fischer Scientific) equipped with a Zorbax Eclipse Plus C18 analytical column (Rapid Resolution HD 1.8 μm; 50 × 2.1 mm, Agilent, USA) and coupled with a UHPLC Guard Zorbax Eclipse Plus C18 pre-column (1.8 µm; 5 × 2.1 mm, Agilent). After separation the eluate was directly passed into a TSQ Vantage tandem mass spectrometer (Thermo Fischer Scientific) equipped with an electro-spray ionization source. Detection of the compounds was based on isolation of the protonated molecular ion, [M + H]+, and subsequent MS/MS fragmentations and selected reaction monitoring were performed. Proprietary compounds of Khondrion were used as internal standards.

SMILES	Potency on mitochondrial superoxide levels (mitoSOX) [1]	IC50 ([2]; Homo sapiens, Skin fibroblast) [nM]	EC50 [3] [nM]	IC50 ([1]; read-out: IC50 mitochondrial superoxide levels (mitoSOX)) [nM]	Potency (IC50) of KH176m relative to KH176, lipid peroxidation [2]	IC50 [2] [nM]	Binding to CCDC101 (CCDC101)	Ratio KH176m/KH176 in cells [4]
Cc1c(C)c2c(c(C)c1O)CC[C@@](C)(C(=O)N[C@@H]1CCCNC1)O2.Cl [KH176, (S)-6-hydroxy-2,5,7,8-tetramethyl-N-((R)-piperidin-3-yl)chroman-2-carboxamide hydrochloride]	much less potent	64000	35 to 270					
CC1=C(C)C(=O)C(CC[C@](C)(O)C(=O)N[C@@H]2CCCNC2)=C(C)C1=O [KH176m]				1400	about 1000 fold	71	no binding	0.48
